Laboratory results from patent US20220257698A1, “ANGIOTENSIN TYPE 2 (AT2) RECEPTOR AGONISTS FOR USE IN THE TREATMENT OF CANCER” (LANTHIOPEP B.V., priority 2019, published 2022).

Test system: colon carcinoma PDX model Co9689A
Experiment: KcAng(1-7) on growth of colon carcinoma PDX Co9689A in mice
Format: in vivo, NMRI nu/nu mice (human PDX)
Settings: for T/C (treated tumor volume as percent of vehicle control): day 28 (day 41 of study)
Experimental: In vivo studies were conducted at EPO GmbH Berlin. Large studies (FIG. 1A, 2, 3, 4, 5) comprised 3 groups of 10 mice/group and 5 animals as reserve, as outlined in Table 1. Smaller studies (FIG. 1B, 1C, 1D) comprised 2 groups of mice of 3 mice per group. The animals were allocated to the various treatment groups (e.g. 0.2 μg/kg and 30 μg/kg) with a maximum of 10 animals per group. […] The groups received subcutaneous (s.c.) drug injection (for max. 28 days) as outlined in the Table 1.
NMRI nu/nu mice were used in this study. The animals were female at age of 6 to 8 weeks. The respective PDX tumors were inoculated subcutaneously (s.c.), and the tumors were grown to achieve palpable tumor sizes before start of the respective treatments. The PDX included breast (MaCa4151), colon (Co9689A), head & neck (HN10309), lung (Lu7433) and ovarian (OvCa13329) cancer (Table 2).
Treatment with KcAng(1-7) was started with palpable tumors after the randomization of animals regarding tumor volume. KcAng(1-7) was applied s.c. by daily injections at […] or 30 μg/kg dose for a maximum of 28 days (or earlier as defined by the humane end point for the study).
KcAng(1-7) was prepared as follows: The compounds was suspended in sterile PBS resulting in a clear solution. The remains of this formulation were stored at 4° C.
Tumor growth stimulatory or inhibitory activity of the KcAng(1-7) was evaluated by determination of tumor volumes (TV). During the study, tumor volumes and body weight were measured twice a week, and the ratio of the mean tumor volumes between the compound-treated group and the vehicle-treated group (T/C) was calculated.
Tumor volume=(tumor width)×(tumor width)×(tumor length)+2
T/C=T÷C • T: Mean estimated tumor volume of the compound-treated group • C: Mean estimated tumor volume of the vehicle-treated group

[1] = Gr. B 0.2 μg/kg/d s.c., Meas. 1
[2] = Gr. B 0.2 μg/kg/d s.c., Meas. 2
[3] = Gr. B 0.2 μg/kg/d s.c., Meas. 3
[4] = Gr. B 0.2 μg/kg/d s.c., Meas. 4
[5] = Gr. B 0.2 μg/kg/d s.c., Meas. 5
[6] = Gr. B 0.2 μg/kg/d s.c., Meas. 6
[7] = Gr. B 0.2 μg/kg/d s.c., Meas. 7
[8] = Gr. B 0.2 μg/kg/d s.c., Meas. 8
[9] = Gr. B 0.2 μg/kg/d s.c., Meas. 9 (day 28, day 41 of study)
[10] = Gr. C 30 μg/kg/d s.c., Meas. 9 (day 28, day 41 of study)

Substance: Lys-Asp-Arg-Val-Abu/Ala-Ile-His-Abu/Ala (KDRVAIHA; not fully specified; cyclic thioether (Abu/Ala bridge); VARIANT (5)..(5) /replace=“Abu”; VARIANT (8)..(8) /replace=“Abu”; SITE (1)..(8) /note=“Variant residues given in the sequence have no preference with respect to those in the annotations for variant positions”) [KcAng(1-7)]
- T/C (treated tumor volume as percent of vehicle control) (0.2 μg/kg): 58%
- T/C (treated tumor volume as percent of vehicle control) (30 μg/kg): 45%
- effect on tumor growth (0.2 and 30 μg/kg, 28 days): statistically significant and dose dependent reduction in tumor growth
- RTV Mean [1]: 1
- RTV Median [1]: 1
- T/C [1]: 99.5%
- Tumor Vol. Mean [1]: 0.093 cm^3
- Tumor Vol. Median [1]: 0.09 cm^3
- RTV Mean [2]: 1.2
- RTV Median [2]: 1.2
- T/C [2]: 90.3%
- Tumor Vol. Mean [2]: 0.107 cm^3
- Tumor Vol. Median [2]: 0.108 cm^3
- RTV Mean [3]: 1.4
- RTV Median [3]: 1.4
- T/C [3]: 87.4%
- Tumor Vol. Mean [3]: 0.132 cm^3
- Tumor Vol. Median [3]: 0.126 cm^3
- RTV Mean [4]: 2
- RTV Median [4]: 1.9
- T/C [4]: 87.1%
- Tumor Vol. Mean [4]: 0.188 cm^3
- Tumor Vol. Median [4]: 0.139 cm^3
- RTV Mean [5]: 2.7
- RTV Median [5]: 2.6
- T/C [5]: 84.6%
- Tumor Vol. Mean [5]: 0.252 cm^3
- Tumor Vol. Median [5]: 0.234 cm^3
- RTV Mean [6]: 2.8
- RTV Median [6]: 2.7
- T/C [6]: 80.7%
- Tumor Vol. Mean [6]: 0.267 cm^3
- Tumor Vol. Median [6]: 0.238 cm^3
- RTV Mean [7]: 3.2
- RTV Median [7]: 2.8
- T/C [7]: 71.6%
- Tumor Vol. Mean [7]: 0.272 cm^3
- Tumor Vol. Median [7]: 0.214 cm^3
- RTV Mean [8]: 2
- RTV Median [8]: 1.9
- T/C [8]: 58.6%
- Tumor Vol. Mean [8]: 0.192 cm^3
- Tumor Vol. Median [8]: 0.178 cm^3
- RTV Mean [9]: 2.7
- RTV Median [9]: 2.5
- T/C [9]: 58.1%
- Tumor Vol. Mean [9]: 0.257 cm^3
- Tumor Vol. Median [9]: 0.219 cm^3
- RTV Mean (Gr. C 30 μg/kg/d s.c., Meas. 1): 1
- RTV Median (Gr. C 30 μg/kg/d s.c., Meas. 1): 1
- T/C (Gr. C 30 μg/kg/d s.c., Meas. 1): 99.5%
- Tumor Vol. Mean (Gr. C 30 μg/kg/d s.c., Meas. 1): 0.093 cm^3
- Tumor Vol. Median (Gr. C 30 μg/kg/d s.c., Meas. 1): 0.097 cm^3
- RTV Mean (Gr. C 30 μg/kg/d s.c., Meas. 2): 1.2
- RTV Median (Gr. C 30 μg/kg/d s.c., Meas. 2): 1.2
- T/C (Gr. C 30 μg/kg/d s.c., Meas. 2): 91.5%
- Tumor Vol. Mean (Gr. C 30 μg/kg/d s.c., Meas. 2): 0.108 cm^3
- Tumor Vol. Median (Gr. C 30 μg/kg/d s.c., Meas. 2): 0.105 cm^3
- RTV Mean (Gr. C 30 μg/kg/d s.c., Meas. 3): 1.3
- RTV Median (Gr. C 30 μg/kg/d s.c., Meas. 3): 1.3
- T/C (Gr. C 30 μg/kg/d s.c., Meas. 3): 80.9%
- Tumor Vol. Mean (Gr. C 30 μg/kg/d s.c., Meas. 3): 0.122 cm^3
- Tumor Vol. Median (Gr. C 30 μg/kg/d s.c., Meas. 3): 0.111 cm^3
- RTV Mean (Gr. C 30 μg/kg/d s.c., Meas. 4): 1.7
- RTV Median (Gr. C 30 μg/kg/d s.c., Meas. 4): 1.5
- T/C (Gr. C 30 μg/kg/d s.c., Meas. 4): 72.1%
- Tumor Vol. Mean (Gr. C 30 μg/kg/d s.c., Meas. 4): 0.156 cm^3
- Tumor Vol. Median (Gr. C 30 μg/kg/d s.c., Meas. 4): 0.125 cm^3
- RTV Mean (Gr. C 30 μg/kg/d s.c., Meas. 5): 2.2
- RTV Median (Gr. C 30 μg/kg/d s.c., Meas. 5): 2.3
- T/C (Gr. C 30 μg/kg/d s.c., Meas. 5): 68.6%
- Tumor Vol. Mean (Gr. C 30 μg/kg/d s.c., Meas. 5): 0.205 cm^3
- Tumor Vol. Median (Gr. C 30 μg/kg/d s.c., Meas. 5): 0.184 cm^3
- RTV Mean (Gr. C 30 μg/kg/d s.c., Meas. 6): 2.5
- RTV Median (Gr. C 30 μg/kg/d s.c., Meas. 6): 2.4
- T/C (Gr. C 30 μg/kg/d s.c., Meas. 6): 72.5%
- Tumor Vol. Mean (Gr. C 30 μg/kg/d s.c., Meas. 6): 0.24 cm^3
- Tumor Vol. Median (Gr. C 30 μg/kg/d s.c., Meas. 6): 0.199 cm^3
- RTV Mean (Gr. C 30 μg/kg/d s.c., Meas. 7): 3
- RTV Median (Gr. C 30 μg/kg/d s.c., Meas. 7): 2.8
- T/C (Gr. C 30 μg/kg/d s.c., Meas. 7): 75.6%
- Tumor Vol. Mean (Gr. C 30 μg/kg/d s.c., Meas. 7): 0.287 cm^3
- Tumor Vol. Median (Gr. C 30 μg/kg/d s.c., Meas. 7): 0.213 cm^3
- RTV Mean (Gr. C 30 μg/kg/d s.c., Meas. 8): 2.2
- RTV Median (Gr. C 30 μg/kg/d s.c., Meas. 8): 1.9
- T/C (Gr. C 30 μg/kg/d s.c., Meas. 8): 63.3%
- Tumor Vol. Mean (Gr. C 30 μg/kg/d s.c., Meas. 8): 0.208 cm^3
- Tumor Vol. Median (Gr. C 30 μg/kg/d s.c., Meas. 8): 0.155 cm^3
- RTV Mean [10]: 2.1
- RTV Median [10]: 1.8
- T/C [10]: 45.3%
- Tumor Vol. Mean [10]: 0.201 cm^3
- Tumor Vol. Median [10]: 0.134 cm^3
- retarded tumor growth (colon carcinoma PDX upon treatment as in Example 1): ~40%
